Reference: ChEMBL document CHEMBL1124283, “1,4-Dihydropyridine antagonist activities at the calcium channel: a quantitative structure-activity relationship approach” (J Med Chem, 1988)

Columns and labels:
Cavia porcellus = species: Cavia porcellus; experiment: Effective concentration required to produce mechanical response determined in muscle strips of guinea pig; type: functional; settings: Muscle tissue, read-out: Log 1/EC50 (converted)
[1] = Compound was tested for its antagonist activity against calcium channel; type: functional, Homo sapiens

Compound	EC50 (Cavia porcellus)	Log 1/IC50 [1]
COC(=O)C1=C(C)NC(C)=C(C(=O)OC)C1c1ccc(N(C)C)cc1	100 µM	–
COC(=O)C1=C(C)NC(C)=C(C(=O)OC)C1c1ccccc1	0.0282 µM	7.85
COC(=O)C1=C(C)N=C(C)/C(=C(\O)OC)C1c1cccc(C)c1 (stereo not drawn)	0.11 µM	7.28
COC(=O)C1=C(C)N=C(C)/C(=C(\O)OC)C1c1c(F)c(F)c(F)c(F)c1F (stereo not drawn)	0.00437 µM	10.37
COC(=O)C1=C(C)N=C(C)/C(=C(\O)OC)C1c1cccc(C#N)c1 (stereo not drawn)	0.0347 µM	8.68
COC(=O)C1=C(C)N=C(C)/C(=C(\O)OC)C1c1ccc(C)cc1 (stereo not drawn)	–	7.18
COC(=O)C1=C(C)N=C(C)/C(=C(/O)OC)C1c1c(F)cccc1Cl (stereo not drawn)	0.00759 µM	8.37
COC(=O)C1=C(C)N=C(C)/C(=C(\O)OC)C1c1cccc(F)c1 (stereo not drawn)	0.0209 µM	8.49
COC(=O)C1=C(C)N=C(C)/C(=C(\O)OC)C1c1ccccc1I (stereo not drawn)	0.0468 µM	10.8
COC(=O)C1=C(C)N=C(C)/C(=C(\O)OC)C1c1ccccc1C#N (stereo not drawn)	0.0158 µM	9.18
COC(=O)C1=C(C)N=C(C)/C(=C(\O)OC)C1c1cc(Cl)cc(Cl)c1 (stereo not drawn)	0.0933 µM	–
COC(=O)C1=C(C)N=C(C)/C(=C(\O)OC)C1c1cccc(N(C)C)c1 (stereo not drawn)	0.891 µM	–
COC(=O)C1=C(C)N=C(C)/C(=C(\O)OC)C1c1cccc(OC)c1 (stereo not drawn)	0.191 µM	7.27
COC(=O)C1=C(C)N=C(C)/C(=C(\O)OC)C1c1cccc(OC(=O)c2ccccc2)c1 (stereo not drawn)	6.31 µM	–
COC(=O)C1=C(C)N=C(C)/C(=C(\O)OC)C1c1cccc([N+](C)(C)C)c1 (stereo not drawn)	50.1 µM	< 5
COC(=O)C1=C(C)N=C(C)/C(=C(\O)OC)C1c1cc([N+](=O)[O-])ccc1O (stereo not drawn)	0.1 µM	–
COC(=O)C1=C(C)N=C(C)/C(=C(\O)OC)C1c1ccc(F)cc1 (stereo not drawn)	0.129 µM	7.46
COC(=O)C1=C(C)N=C(C)/C(=C(\O)OC)C1c1cccc(O)c1 (stereo not drawn)	1 µM	–
COC(=O)C1=C(C)N=C(C)/C(=C(\O)OC)C1c1ccccc1OC (stereo not drawn)	0.0575 µM	7.87
COC(=O)C1=C(C)N=C(C)/C(=C(\O)OC)C1c1cccc(Br)c1 (stereo not drawn)	0.00129 µM	–
COC(=O)C1=C(C)N=C(C)/C(=C(/O)OC)C1c1cccc(Cl)c1 (stereo not drawn)	0.0158 µM	9.3
COC(=O)C1=C(C)N=C(C)/C(=C(\O)OC)C1c1cccc(C(F)(F)F)c1 (stereo not drawn)	0.0741 µM	–

Compound	EC50 (Cavia porcellus)	Log 1/IC50 [1]
COC(=O)C1=C(C)N=C(C)/C(=C(\O)OC)C1c1cc(OC)c(OC)cc1OC (stereo not drawn)	1000 µM	–
COC(=O)C1=C(C)N=C(C)/C(=C(\O)OC)C1c1ccccc1F (stereo not drawn)	0.0427 µM	8.44
C=Cc1ccccc1C1C(C(=O)OC)=C(C)N=C(C)/C1=C(\O)OC (stereo not drawn)	0.00447 µM	–
COC(=O)C1=C(C)N=C(C)/C(=C(\O)OC)C1c1ccc(Cl)cc1 (stereo not drawn)	8.13 µM	6.22
COC(=O)C1=C(C)N=C(C)/C(=C(\O)OC)C1c1cc([N+](=O)[O-])ccc1Cl (stereo not drawn)	0.0302 µM	–
COC(=O)C1=C(C)N=C(C)/C(=C(\O)OC)C1c1ccc(C#N)cc1 (stereo not drawn)	3.47 µM	–
CCc1ccccc1C1C(C(=O)OC)=C(C)N=C(C)/C1=C(\O)OC (stereo not drawn)	0.00646 µM	–
COC(=O)C1=C(C)N=C(C)/C(=C(\O)OC)C1c1cccc(OC(C)=O)c1 (stereo not drawn)	6.03 µM	–
COC(=O)C1=C(C)N=C(C)/C(=C(\O)OC)C1c1ccc(I)cc1 (stereo not drawn)	22.9 µM	–
COC(=O)C1=C(C)N=C(C)/C(=C(\O)OC)C1c1cccc(N=[N+]=[N-])c1 (stereo not drawn)	–	8.67
COC(=O)C1=C(C)N=C(C)/C(=C(\O)OC)C1c1ccccc1C (stereo not drawn)	0.00603 µM	8.71
COC(=O)C1=C(C)N=C(C)/C(=C(\O)OC)C1c1c(Cl)cccc1Cl (stereo not drawn)	0.00191 µM	–
COC(=O)C1=C(C)N=C(C)/C(=C(\O)OC)C1c1ccccc1Cl (stereo not drawn)	0.00219 µM	9.78
CCOc1ccccc1C1C(C(=O)OC)=C(C)N=C(C)/C1=C(\O)OC (stereo not drawn)	0.11 µM	–
COC(=O)C1=C(C)N=C(C)/C(=C(\O)OC)C1c1cccc(N)c1 (stereo not drawn)	2 µM	–
COC(=O)C1=C(C)N=C(C)/C(=C(\O)OC)C1c1ccccc1C(F)(F)F (stereo not drawn)	0.00151 µM	–
COC(=O)C1=C(C)N=C(C)/C(=C(\O)OC)C1c1cccc(I)c1 (stereo not drawn)	0.0417 µM	–
COC(=O)C1=C(C)N=C(C)/C(=C(\O)OC)C1c1cc(C)ccc1C (stereo not drawn)	0.1 µM	–
COC(=O)C1=C(C)N=C(C)/C(=C(\O)OC)C1c1ccccc1Br (stereo not drawn)	0.00759 µM	10.49
COC(=O)C1=C(C)N=C(C)/C(=C(\O)OC)C1c1ccccc1N (stereo not drawn)	39.8 µM	–
COC(=O)C1=C(C)N=C(C)/C(=C(\O)OC)C1c1cccc(Cl)c1Cl (stereo not drawn)	0.0191 µM	–
COC(=O)C1=C(C)NC(C)=C(C(=O)OC)C1c1ccccc1[N+](=O)[O-] [NIFEDIPINE]	0.00513 µM	9.08
